Laboratory results reported in the NIST ThermoML archive (doi:10.1021/je900777q).
Several values for one entry are separate records, joined by “and”; a condition that tells them apart may be missing. Equal entries are not always repeated. Numbers after ± are expanded uncertainties.

Columns and labels:
[1] = Molar enthalpy of transition or fusion; conditions: Crystal; DSC
[2] = Crystal; for vapor or sublimation pressure: Calculated from knudsen effusion weight loss; for Normal melting temperature: DTA

O=C(O)c1cccc(O)c1O [2,3-dihydroxybenzoic acid]
Conditions	Molar enthalpy of transition or fusion [kJ/mol]	Normal melting temperature [°C]
[1]	31.9 ± 1.2	–
[2]	–	203.2 ± 1.3

[2]
Conditions	vapor or sublimation pressure
345.22 K	0.000158 ± 2.1e-05 kPa and 0.000159 ± 2.1e-05 kPa and 0.000157 ± 2.1e-05 kPa
347.21 K	0.000201 ± 2.1e-05 kPa and 0.000196 ± 2.1e-05 kPa and 0.000197 ± 2.1e-05 kPa
349.23 K	0.00025 ± 2.2e-05 kPa and 0.000248 ± 2.2e-05 kPa and 0.000246 ± 2.2e-05 kPa
351.19 K	0.000308 ± 2.3e-05 kPa and 0.00031 ± 2.3e-05 kPa
353.21 K	0.00038 ± 2.4e-05 kPa and 0.000377 ± 2.4e-05 kPa
355.17 K	0.000468 ± 2.6e-05 kPa and 0.000466 ± 2.6e-05 kPa
357.2 K	0.000569 ± 2.8e-05 kPa and 0.000565 ± 2.8e-05 kPa and 0.000564 ± 2.8e-05 kPa
359.2 K	0.000716 ± 3.2e-05 kPa and 0.000708 ± 3.2e-05 kPa and 0.000711 ± 3.2e-05 kPa
361.21 K	0.000867 ± 3.7e-05 kPa and 0.000857 ± 3.6e-05 kPa and 0.000861 ± 3.6e-05 kPa
363.18 K	0.001039 ± 8.1e-05 kPa and 0.001029 ± 8e-05 kPa

O=C(O)c1ccc(O)cc1O [2,4-dihydroxybenzoic acid]
[2]
Conditions	vapor or sublimation pressure
376.22 K	0.000198 ± 2.1e-05 kPa and 0.000192 ± 2.1e-05 kPa and 0.000195 ± 2.1e-05 kPa
377.32 K	0.000224 ± 2.2e-05 kPa and 0.000217 ± 2.1e-05 kPa and 0.00022 ± 2.1e-05 kPa
379.13 K	0.000269 ± 2.2e-05 kPa and 0.00026 ± 2.2e-05 kPa and 0.000264 ± 2.2e-05 kPa
381.15 K	0.000315 ± 2.3e-05 kPa and 0.000319 ± 2.3e-05 kPa and 0.000332 ± 2.3e-05 kPa
383.13 K	0.000399 ± 2.4e-05 kPa and 0.000388 ± 2.4e-05 kPa and 0.00039 ± 2.4e-05 kPa
385.12 K	0.000501 ± 2.7e-05 kPa and 0.000489 ± 2.6e-05 kPa and 0.000493 ± 2.7e-05 kPa
387.17 K	0.000613 ± 3e-05 kPa and 0.000591 ± 2.9e-05 kPa and 0.000593 ± 2.9e-05 kPa
389.35 K	0.000762 ± 3.4e-05 kPa and 0.000732 ± 3.3e-05 kPa and 0.000741 ± 3.3e-05 kPa
391.3 K	0.000916 ± 3.8e-05 kPa and 0.000884 ± 3.7e-05 kPa and 0.000893 ± 3.7e-05 kPa
392.11 K	0.000988 ± 4e-05 kPa and 0.000961 ± 3.9e-05 kPa and 0.000955 ± 3.9e-05 kPa

O=C(O)c1cc(O)ccc1O [2,5-dihydroxybenzoic acid]
Conditions	Molar enthalpy of transition or fusion [kJ/mol]	Normal melting temperature [°C]
[1]	20.8 ± 3.4	–
[2]	–	203.1 ± 0.5

[2]
Conditions	vapor or sublimation pressure
372.14 K	0.00015 ± 2.1e-05 kPa and 0.000146 ± 2.1e-05 kPa and 0.000145 ± 2.1e-05 kPa
374.13 K	0.000192 ± 2.1e-05 kPa and 0.000182 ± 2.1e-05 kPa and 0.000183 ± 2.1e-05 kPa
376.19 K	0.000231 ± 2.2e-05 kPa and 0.000221 ± 2.1e-05 kPa
378.15 K	0.000287 ± 2.2e-05 kPa and 0.000299 ± 2.3e-05 kPa and 0.000285 ± 2.2e-05 kPa
380.3 K	0.000373 ± 2.4e-05 kPa and 0.000356 ± 2.4e-05 kPa and 0.000364 ± 2.4e-05 kPa
382.22 K	0.00045 ± 2.6e-05 kPa
384.7 K	0.000572 ± 2.8e-05 kPa and 0.000574 ± 2.9e-05 kPa
386.12 K	0.000663 ± 3.1e-05 kPa and 0.000649 ± 3e-05 kPa
388.92 K	0.000905 ± 3.8e-05 kPa and 0.000871 ± 3.7e-05 kPa and 0.000866 ± 3.7e-05 kPa

O=C(O)c1c(O)cccc1O [2,6-dihydroxybenzoic acid]
[2]
Conditions	vapor or sublimation pressure
347.14 K	0.000138 ± 2.1e-05 kPa and 0.000131 ± 2.1e-05 kPa and 0.000133 ± 2.1e-05 kPa
349.32 K	0.000171 ± 2.1e-05 kPa and 0.000173 ± 2.1e-05 kPa
351.02 K	0.000204 ± 2.1e-05 kPa and 0.000208 ± 2.1e-05 kPa
353.26 K	0.000255 ± 2.2e-05 kPa and 0.000249 ± 2.2e-05 kPa
355.35 K	0.000323 ± 2.3e-05 kPa and 0.000336 ± 2.3e-05 kPa
357.2 K	0.000401 ± 2.5e-05 kPa and 0.000391 ± 2.4e-05 kPa and 0.000386 ± 2.4e-05 kPa
359.28 K	0.000491 ± 2.7e-05 kPa and 0.000477 ± 2.6e-05 kPa and 0.000479 ± 2.6e-05 kPa
361.38 K	0.000609 ± 2.9e-05 kPa and 0.00059 ± 2.9e-05 kPa and 0.000586 ± 2.9e-05 kPa
363.19 K	0.000713 ± 3.2e-05 kPa and 0.000692 ± 3.2e-05 kPa and 0.000679 ± 3.1e-05 kPa
365.17 K	0.000881 ± 3.7e-05 kPa and 0.000845 ± 3.6e-05 kPa and 0.000834 ± 3.6e-05 kPa

O=C(O)c1ccc(O)c(O)c1 [3,4-dihydroxybenzoic acid]
[2]
Conditions	vapor or sublimation pressure
387.12 K	8.9e-05 ± 2e-05 kPa and 8.7e-05 ± 2e-05 kPa and 8.6e-05 ± 2e-05 kPa
391.31 K	0.000132 ± 2.1e-05 kPa and 0.000133 ± 2.1e-05 kPa
393.33 K	0.000166 ± 2.1e-05 kPa and 0.000164 ± 2.1e-05 kPa and 0.000165 ± 2.1e-05 kPa
395.2 K	0.0002 ± 2.1e-05 kPa and 0.000202 ± 2.1e-05 kPa and 0.000201 ± 2.1e-05 kPa
397.32 K	0.000249 ± 2.2e-05 kPa and 0.000253 ± 2.2e-05 kPa and 0.00025 ± 2.2e-05 kPa
401.25 K	0.000367 ± 2.4e-05 kPa and 0.000365 ± 2.4e-05 kPa
403.26 K	0.000451 ± 2.6e-05 kPa and 0.000452 ± 2.6e-05 kPa and 0.00045 ± 2.6e-05 kPa

O=C(O)c1cc(O)cc(O)c1 [3,5-dihydroxybenzoic acid]
Conditions	Molar enthalpy of transition or fusion [kJ/mol]	Normal melting temperature [°C]
[1]	38.3 ± 1.1	–
[2]	–	235.2 ± 0.5

[2]
Conditions	vapor or sublimation pressure
407.36 K	9.8e-05 ± 2e-05 kPa and 9.7e-05 ± 2e-05 kPa
410.25 K	0.00013 ± 2.1e-05 kPa and 0.000129 ± 2.1e-05 kPa
413.16 K	0.000176 ± 2.1e-05 kPa and 0.000179 ± 2.1e-05 kPa and 0.000175 ± 2.1e-05 kPa
416.13 K	0.000237 ± 2.2e-05 kPa and 0.000234 ± 2.2e-05 kPa and 0.000238 ± 2.2e-05 kPa
419.21 K	0.000305 ± 2.3e-05 kPa and 0.00031 ± 2.3e-05 kPa and 0.000311 ± 2.3e-05 kPa
422.2 K	0.000407 ± 2.5e-05 kPa and 0.000409 ± 2.5e-05 kPa and 0.000412 ± 2.5e-05 kPa
425.23 K	0.000561 ± 2.8e-05 kPa and 0.000563 ± 2.8e-05 kPa
